Experimental data as given in patent US20210163404A1, “NOVEL UREA COMPOUNDS AND BIOISOSTERES THEREOF AND THEIR USE FOR TREATING INFLAMMATION AND INFLAMMATION-RELATED PATHOLOGIES” (UNIVERSITÉ LAVAL, priority 2017, published 2021).

How the values were obtained:
[1] = system: HT-29 colon adenocarcinoma cells; assay: Antiproliferative activity (NCI procedure, sulforhodamine B), HT-29; assay type: cell-based, human; details: Homo sapiens, HT-29, unit inferred, tested 781 nM to 100 μM, 48 h
Description: (§1) The antiproliferative activity of compounds 3a-b, 4a-e, 5a-e and 6a-e was subsequently evaluated using the human HT-29 colon adenocarcinoma and the A549 adenocarcinoma alveolar epithelial cancer cell lines, the HaCaT spontaneously transformed aneuploid immortal keratinocyte cell line and the HDFn neonatal dermal fibroblast cell line (Table 2). Cell growth inhibition was assessed according to the NCI/NIH Developmental Therapeutics Program.
(§2) The antiproliferative activity assay of all compounds was assessed using the procedure recommended by the National Cancer Institute for its drug screening program with minor modifications. Briefly, 96-well microtiter plates were seeded with 75 μL of a suspension of either HaCaT (5×10^3), HT-29 (3.0×10^3), A549 (3.0×10^3) or HDFn (3×10^3) cells per well in DMEM and incubated for 24 h at 37° C. in a moisture-saturated atmosphere containing 5% CO2. Compounds freshly solubilized in DMSO (40 mM) were diluted in fresh DMEM, and 75 μL aliquots containing serially diluted concentrations of the compound were added. Final compound concentrations ranged from 100 μM to 781 nM. DMSO was maintained at a concentration of <0.5% (v/v) to avoid any related cytotoxicity. Plates were subsequently incubated for 48 h. Cell growth was then stopped by the addition of cold trichloroacetic acid to the wells (10% w/v, final concentration), followed by a 1 h incubation period at 4° C. The plates were washed 4-times with water. A sulforhodamine B solution (75 μL; 0.1% w/v) in acetic acid (1%) was subsequently added to each well and the plates incubated over a 15 min period while at room temperature. After staining, any unbound dye was removed by washing 4-times with an acetic acid solution (1%). Bound dye was solubilized in 20 mM Tris base and the absorbance was measured at an optimal wavelength (530-568 nm) using a μQuant® Universal microplate spectrophotometer (BioTek, Winooski, Vt.). The measurements for treated cells were compared with measurements from control cell plates fixed on treatment day and the percentage of cell growth inhibition was calculated for each drug. The experiments were performed at least twice in triplicate. The assays were considered valid when the coefficient of variation for a given set of conditions and within the same experiment was <10%.

[2] = system: HaCaT keratinocyte cell line; assay: Antiproliferative activity (NCI procedure, sulforhodamine B), HaCaT; assay type: cell-based, human; details: Homo sapiens, HaCaT, unit inferred, tested 781 nM to 100 μM, 48 h
Description: as §1, §2

[3] = system: HDFn neonatal dermal fibroblast cell line; assay: Antiproliferative activity (NCI procedure, sulforhodamine B), HDFn; assay type: cell-based, human; details: Homo sapiens, Fibroblast, unit inferred, tested 781 nM to 100 μM, 48 h
Description: as §1, §2

[4] = system: A549 adenocarcinoma alveolar epithelial cancer cells; assay: Antiproliferative activity (NCI procedure, sulforhodamine B), A549; assay type: cell-based, human; details: Homo sapiens, A549, unit inferred, tested 781 nM to 100 μM, 48 h
Description: as §1, §2

| Compound | melting point [°C] | IC50 ([1]; Table 5) [µM] | IC50 ([2]; Table 5) [µM] | IC50 ([3]; Table 5) [µM] | IC50 ([4]; Table 5) [µM] | IC50 ([1]; Table 8) [µM] | IC50 ([2]; Table 8) [µM] | IC50 ([3]; Table 8) [µM] | IC50 ([4]; Table 8) [µM] | IC50 ([1]; Table 6) [µM] | IC50 ([2]; Table 6) [µM] | IC50 ([3]; Table 6) [µM] | IC50 ([4]; Table 6) [µM] |
| --- | --- | --- | --- | --- | --- | --- | --- | --- | --- | --- | --- | --- | --- |
| S=C(Nc1ccc(C2CCCCC2)cc1)NC1CCCC1 [Compound 89] | 146 to 152 |  |  |  |  | 21.6 | 34.9 | 14.6 | 20 |  |  |  |  |
| S=C(NCC1CCC1)Nc1ccc(I)cc1 [Compound 92] | 98 to 108 |  |  |  |  | 27.2 | 48.2 | 24.2 | 26.2 |  |  |  |  |
| CCNC(=O)Nc1cccc(C2CCCCC2)c1 [Compound 66] | 141 to 144 |  |  |  |  |  |  |  |  | 31 | 37 | 31 | 58 |
| CC(C)(C)c1ccc(NC(=S)NCC2CCC2)cc1 [Compound 96] | 129 to 146 |  |  |  |  | 44 | > 100 | > 100 | 23.3 |  |  |  |  |
| S=C(Nc1cccc(C2CCCCC2)c1)NC1CCCC1 [Compound 107] | 129 to 142 |  |  |  |  | 5.7 | 7.9 | 3.8 | 6.2 |  |  |  |  |
| O=C(NCC1CCC1)Nc1cccc(C2CCCCC2)c1 [Compound 68] | 115 to 120 |  |  |  |  |  |  |  |  | 5.6 | 3.7 | 12 | 8 |
| S=C(Nc1ccc(C2CCCCC2)cc1)NC1CC1 [Compound 93] | 157 to 165 |  |  |  |  | 30.8 | 84.7 | 84 | 20.8 |  |  |  |  |
| CCCNC(=O)Nc1cccc(C2CCCCC2)c1 [Compound 18] | 131 to 134 | 24.1 | 32 | 23 | 21 |  |  |  |  |  |  |  |  |
| S=C(NCC1CCC1)Nc1cccc(I)c1 [Compound 99] | 136 to 147 |  |  |  |  | 27 | 35.5 | 19.4 | 26.2 |  |  |  |  |
| S=C(Nc1cccc(I)c1)NC1CC1 [Compound 103] | 142 to 152 |  |  |  |  | > 100 | > 100 | > 100 | > 100 |  |  |  |  |
| S=C(Nc1cccc(C2CCCCC2)c1)NC1CC1 [Compound 105] | 122 to 128 |  |  |  |  | 12.7 | 16.3 | 14.7 | 15.9 |  |  |  |  |
| S=C(NCC1CCC1)Nc1ccc(C2CCCCC2)cc1 [Compound 88] | 144 to 152 |  |  |  |  | 20.4 | 32.5 | 15.7 | 15.3 |  |  |  |  |
| O=C(Nc1cccc(C2CCCCC2)c1)NC1CC1 [Compound 67] | 138 to 144 |  |  |  |  |  |  |  |  | 26 | 17 | 25 | 37 |
| S=C(Nc1ccc(I)cc1)NC1CC1 [Compound 101] | 166 to 180 |  |  |  |  | 63.3 | > 100 | > 100 | 65.1 |  |  |  |  |
| S=C(Nc1ccc(I)cc1)NC1CCCC1 [Compound 102] | 154 to 162 |  |  |  |  | 25.1 | 39.1 | 18.6 | 25.3 |  |  |  |  |
| CCCNC(=O)Nc1ccc(C2CCCCC2)cc1 [Compound 15] | 166 to 168 | > 100 | > 100 | 59.1 | > 100 |  |  |  |  |  |  |  |  |
| CC(C)(C)c1ccc(NC(=S)NC2CCCC2)cc1 [Compound 97] | 142 to 154 |  |  |  |  | 28.8 | 40 | 22.6 | 26.2 |  |  |  |  |
| CC(C)NC(=O)Nc1ccc(C2CCCCC2)cc1 [Compound 13] | 163 to 170 | 56.9 | > 100 | 59.1 | 60.8 |  |  |  |  |  |  |  |  |
| COCCNC(=O)Nc1ccc(I)cc1 [Compound 26, 1-(4-Iodophenyl)-3-(2-methoxyethyl)urea] | 141 to 143 |  |  |  |  |  |  |  |  |  |  |  |  |
| CC(C)(C)CNC(=O)Nc1ccc(C2CCCCC2)cc1 [Compound 61, 1-(4-Cyclohexylphenyl)-3-neopentylurea] | 167 to 169 |  |  |  |  |  |  |  |  |  |  |  |  |

Continued, in another order:

| melting point [°C] | Compound | IC50 ([1]; Table 5) [µM] | IC50 ([2]; Table 5) [µM] | IC50 ([3]; Table 5) [µM] | IC50 ([4]; Table 5) [µM] | IC50 ([1]; Table 8) [µM] | IC50 ([2]; Table 8) [µM] | IC50 ([3]; Table 8) [µM] | IC50 ([4]; Table 8) [µM] | IC50 ([1]; Table 6) [µM] | IC50 ([2]; Table 6) [µM] | IC50 ([3]; Table 6) [µM] | IC50 ([4]; Table 6) [µM] |
| --- | --- | --- | --- | --- | --- | --- | --- | --- | --- | --- | --- | --- | --- |
| 189 to 193 | CC(C)(C)NC(=O)Nc1cccc(I)c1 [Compound 5] | 81.3 | > 100 | 17.4 | 61.8 |  |  |  |  |  |  |  |  |
| 179 to 199 | CC(C)(C)NC(=O)Nc1ccc(I)cc1 [Compound 2] | 32.9 | 44.7 | 27.1 | 37.1 |  |  |  |  |  |  |  |  |
| 147 to 151 | CCCNC(=O)Nc1ccc(C(C)(C)C)cc1 [Compound 9] | 54.9 | > 100 | 10.5 | 67.1 |  |  |  |  |  |  |  |  |
| 153 to 156 | CC(C)NC(=O)Nc1cccc(I)c1 [Compound 4] | > 100 | 94.5 | 59.1 | 80.3 |  |  |  |  |  |  |  |  |
| 109 to 115 | CCNC(=S)Nc1ccc(C(C)(C)C)cc1 [Compound 94] |  |  |  |  | 92 | > 100 | 94 | 71.1 |  |  |  |  |
| 170 to 180 | CC(C)(C)c1cccc(NC(=S)NC2CCCC2)c1 [Compound 91] |  |  |  |  | 21 | 31.8 | 16.3 | 19.4 |  |  |  |  |
| 167 to 174 | CC(C)(C)NC(=O)Nc1ccc(C(C)(C)C)cc1 [Compound 8] | 35.6 | 55 | 14.5 | 34.2 |  |  |  |  |  |  |  |  |
| 119 to 143 | CC(C)(C)c1ccc(NC(=S)NC2CC2)cc1 [Compound 95] |  |  |  |  | 64.4 | 94.5 | 60 | 57.9 |  |  |  |  |
| 161 to 170 | CC(C)(C)NC(=O)Nc1cccc(C(C)(C)C)c1 [Compound 11] | 34.9 | 46.5 | 13.1 | 36.7 |  |  |  |  |  |  |  |  |
| 195 to 203 | CC(C)(C)NC(=O)Nc1cccc(C2CCCCC2)c1 [Compound 17] | 58.3 | 87.9 | 16.3 | 44.1 |  |  |  |  |  |  |  |  |
| 125 to 140 | CC(C)(C)c1cccc(NC(=S)NC2CC2)c1 [Compound 100] |  |  |  |  | 75.7 | > 100 | > 100 | 70 |  |  |  |  |
| 105 to 111 | CC(C)(C)c1cccc(NC(=S)NCC2CCC2)c1 [Compound 90] |  |  |  |  | 20.2 | 34.3 | 18.2 | 17.5 |  |  |  |  |
| 138 to 141 | CCCNC(=O)Nc1cccc(C(C)(C)C)c1 [Compound 12] | > 100 | > 100 | 81.5 | > 100 |  |  |  |  |  |  |  |  |
| 182 to 189 | CC(C)(C)NC(=O)Nc1ccc(C2CCCCC2)cc1 [Compound 14] | 25.5 | 35.4 | 17.2 | 18.5 |  |  |  |  |  |  |  |  |
| 178 to 181 | CC(C)NC(=O)Nc1cccc(C2CCCCC2)c1 [Compound 16] | > 100 | > 100 | 30.5 | > 100 |  |  |  |  |  |  |  |  |
| 132 to 136 | CCCNC(=O)Nc1cccc(I)c1 [Compound 6] | 87.9 | 99.7 | 44.2 | 80 |  |  |  |  |  |  |  |  |
| 152 to 155 | CC(C)NC(=O)Nc1ccc(C(C)(C)C)cc1 [Compound 7] | 74.2 | > 100 | 57.4 | 83.2 |  |  |  |  |  |  |  |  |
| 146 to 149 | CC(C)NC(=O)Nc1cccc(C(C)(C)C)c1 [Compound 10] | 85.2 | > 100 | 92.4 | 96.8 |  |  |  |  |  |  |  |  |
| 113 to 114 | CC(C)(C)c1cccc(NC(=O)NCC2CCCC2)c1 [Compound 49] |  |  |  |  |  |  |  |  |  |  |  |  |
